From patent US9458463B2, “Method for treatment of diabetes by a small molecule inhibitor for GRK5” (MAX-PLANCK-GESELLSCHAFT ZUR FÖRDERUNG DER WISSENSCHAFTEN …, priority 2010, dated 2016)

Columns and labels:
[1] = molecular target: T1, full length GRK5 (Homo sapiens, UniProt P34947); experiment: GRK5 kinase activity assay, ADP Glo Kinase Assay technology (Promega); type: biochemical; conditions: group II; ADP Glo Kinase Assay (Table 9-B)
T1 construct: 6/2 fold concentrated full length GRK5 (Millipore, #14-714) in reaction buffer; purchased Millipore 14-714
T1 sequence (P34947 whole entry): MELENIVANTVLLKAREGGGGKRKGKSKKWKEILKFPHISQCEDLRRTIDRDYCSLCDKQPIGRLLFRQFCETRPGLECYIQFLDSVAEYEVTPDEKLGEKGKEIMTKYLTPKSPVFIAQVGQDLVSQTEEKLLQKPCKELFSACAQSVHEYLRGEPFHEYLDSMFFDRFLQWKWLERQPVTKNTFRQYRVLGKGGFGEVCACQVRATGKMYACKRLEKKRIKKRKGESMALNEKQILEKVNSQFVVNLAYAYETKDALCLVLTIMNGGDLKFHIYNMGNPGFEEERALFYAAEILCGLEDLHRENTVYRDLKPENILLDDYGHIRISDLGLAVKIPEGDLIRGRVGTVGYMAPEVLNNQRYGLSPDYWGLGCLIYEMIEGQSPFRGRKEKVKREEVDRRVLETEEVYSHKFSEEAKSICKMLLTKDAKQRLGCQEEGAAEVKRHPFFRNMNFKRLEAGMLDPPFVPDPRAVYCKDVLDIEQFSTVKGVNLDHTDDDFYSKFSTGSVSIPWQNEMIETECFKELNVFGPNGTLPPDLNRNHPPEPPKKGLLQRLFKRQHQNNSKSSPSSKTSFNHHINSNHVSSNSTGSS
Procedure: The maximal compound assay concentration was set to 100 μM, representing the compound assay concentration used in the primary screen.
Increasing concentrations of GRK5 are incubated together with 100 μM ATP in the absence and presence of 10 μM casein in a reaction buffer. Within this incubation non-phosphorylated casein is converted into phosphorylated casein and ATP is converted into ADP. Thereafter nonconverted ATP is digested into AMP by addition of the ADP-Glo™ Reagent. Subsequently the ADP that is produced by GRK5 activity is phosphorylated back to ATP by addition of Promega Kinase Detection Reagent. These ATP levels serve as measure for the GRK5 activity and are quantified by a luciferase/luciferin reaction.
For GRK5 kinase activity assay, the following protocol was used:
The reaction buffer used was composed of: 20 mM MES pH 6.0, 1 mM DTT, 10 mM MgCl2, 0.01% Tween20 and the reaction volume was 6 μL.
Firstly 4 μL 6/4 fold concentrated substrate and 6/4 fold concentrated ATP in 1 fold concentrated reaction buffer are added to each well of the assay plate. Subsequently 67 nL […] concentrated test compound in 100% DMSO are added to each well except to C− and C+ wells using pin tool. Then 67 nL 100% DMSO are pipetted to C− (no kinase, no compound) and C+ (no compound) wells using pin-tool and 2 μL reaction buffer are added to C− wells. […] After incubation for 120 min. at room temperature 6 μL ADP-Glo™ Reagent (ADP Glo™ Kinase Assay Kit: Promega, V9101) are added to each well to stop the kinase reaction and deplete the unconsumed ATP. After a second incubation for 40 min. at room temperature 12 μL of Kinase Detection Reagent are added to convert ADP to ATP and start luciferase/luciferin reaction for detection of ATP. […] Finally, after incubation for 40 min at room temperature the luminescence intensity was measured.
The activity of the compounds was classified according to IC50 for binding sites of Grk5 into the following ranges:
8800 Customer compounds were screened for their ability to inhibit the enzymatic activity of GRK5. Screening was performed using the ADP Glo™ Kinase Assay technology (Promega). The small molecular weight compounds were delivered at 10 mM stock concentration and were tested at a final assay concentration of 100 μM.
IC50 values were determined in triplicates at 12 concentrations with a dilution factor of three. Triplicates were measured on three different assay plates. The maximal compound assay concentration was set to 100 μM representing the compound assay concentration used in the primary screen. A larger maximal compound assay concentration could not be achieved since the maximal compound concentration on the compound plates was 10 mM (>1% DMSO concentration in the assay).

[2] = tested on: 3T3-L1 cells; experiment: Cell viability assay (CellTiter-Glo / automated cell number) in 3T3-L1; type: cell-based; conditions: Mus musculus, read-out: Inhibition of cell viability IC50
From the text: (§1) Luminescent cell viability assay. For the detection of cell viability, the CellTiter-Glo® Luminescent Cell Viability Assay was used. This test is based on a luciferase reaction to measure the amount of ATP in cells. This correlates directly with the number of cells and their viability because cells lose the ability to synthesize ATP directly after e.g. loss of membrane integrity or a cytotoxic event. The protocol was adapted to 24 well plates and to the different culture conditions resulting in a standardized protocol which is described below. Cell lysis, inhibition of endogenous ATPases and detection of ATP was performed by adding the CellTiter-Glo® Reagent to the culture wells. Per well, 100 μl reagent were mixed with the same volume of proper Medium. Lysing of the cells took place by 10 min incubation at RT and moderate shaking. Three times 50 μl cell lysate was transferred into a white 96 well plate to eliminate stray light, and the bioluminescence was measured.
(§2) In a 96 well dish 10000 cells per well (100 μl) were seed and treated for 72 h. At the end of the treatment, cells were fixed with 4% paraformaldehyde in PBS for 15 minutes, permeabilized with 0.1% triton-X 100 in PBS for 15 minutes and stained with Hoechst 33342 (20 μg/ml in PBS; dilute from 20 mg/ml stock) directly to cells in 100 μl medium in PBS for 30 minutes at 37° C. Stained cells were imaged with a Cellomics ArrayScan VT I automated microscope. Images were analyzed with vHCS Scan Target Activation software v5.1.2 to identify apoptotic cells. Six fields per well of a 96 well plate we re-imaged at 10× magnification. First, cells were identified by their nuclei staining in channel 1 of Cellomics and their amount. Staining intensity was plotted and compared between NT controls and compound treated cells. Finally, data was obtained using vHCS View software v 5.1.2 and the numbers of cells present in the 96 well were identified as “Valid Object Count” whereas the percentage of infection was determined as “% selected”. IC50 values have been calculated accordingly.

[3] = tested on: beta TC6 cells; experiment: Cell viability assay (CellTiter-Glo / automated cell number) in beta TC6; type: cell-based; conditions: Mus musculus, read-out: Inhibition of cell viability IC50
From the text: as §1, §2

[4] = tested on: C2C12 cells; experiment: Cell viability assay (CellTiter-Glo / automated cell number) in C2C12; type: cell-based; conditions: Mus musculus, read-out: Inhibition of cell viability IC50
From the text: as §1, §2

[5] = tested on: HepG2 cells; experiment: Cell viability assay (CellTiter-Glo / automated cell number) in HepG2; type: cell-based; conditions: Homo sapiens, read-out: Inhibition of cell viability IC50
From the text: as §1, §2

IC50 [1] | IC50 [5] | Structure (SMILES) | IC50 [2] | IC50 [3] | IC50 [4]
2 to 10 µM | 0.69 µM | CC[C@@H](NC(=O)c1ccc2c(c1)/C(=C/c1[nH]c(C)c(C(=O)N3CCN(C)CC3)c1C)C(=O)N2)c1ccccc1 [II.7, (3Z)-3-({3,5-dimethyl-4-[(4-methylpiperazin-1-yl)carbonyl]-1H-pyrrol-2-yl}methylene)-2-oxo-N-[(1R)-1-phenylpropyl]indoline-5-carboxamide] | 1.07 µM | 1.19 µM | 1.31 µM
< 0.1 µM | 3.9 µM | C[C@@H](NC(=O)c1ccc2c(c1)/C(=C/Nc1ccc(CN3CCCCC3)cc1)C(=O)N2)c1cccc(Cl)c1 [II.80, (3Z)-N-[(1R)-1-(3-chlorophenyl)ethyl]-2-oxo-3-({[4-(piperidin-1-ylmethyl)phenyl]amino}methylene)indoline-5-carboxamide] | > 10 µM | 0.47 µM | > 10 µM
0.1 to 1 µM | 0.27 µM | CC[C@@H](NC(=O)c1ccc2c(c1)/C(=C/c1[nH]c(C)c(C(=O)NCCN3CCCC3)c1C)C(=O)N2)c1ccccc1 [II.6, (3Z)-3-({3,5-dimethyl-4-[(2-pyrrolidin-1-ylethyl)carbamoyl]-1H-pyrrol-2-yl}methylene)-2-oxo-N-[(1R)-1-phenylpropyl]indoline-5-carboxamide] | 1.7 µM | 0.42 µM | 1.49 µM
1 to 2 µM | 0.54 µM | Cc1[nH]c(/C=C2\C(=O)Nc3ccc(C(=O)N[C@H](C)c4ccccc4)cc32)c(C)c1C(=O)N1CCN(C)CC1 [II.15, (3Z)-3-({3,5-dimethyl-4-[(4-methylpiperazin-1-yl)carbonyl]-1H-pyrrol-2-yl}methylene)-2-oxo-N-[(1R)-1-phenylethyl]indoline-5-carboxamide] | 1.12 µM | 1.68 µM | 2.37 µM
1 to 2 µM | > 10 µM | COC(=O)[C@@H](Cc1ccccc1)NC(=O)c1c(C)[nH]c(/C=C2\C(=O)Nc3ccc(C(=O)O)cc32)c1C [II.140, (3Z)-3-[4-((1R)-1-methoxycarbonyl-2-phenyl-ethylcarbamoyl)-3,5-dimethyl-1H-pyrrol-2-ylmethylene]-2-oxo-2,3-dihydro-1H-indole-5-carboxylic acid] | 4 µM | > 10 µM | > 10 µM
< 0.1 µM | 1.85 µM | CCC(NC(=O)c1ccc2c(c1)/C(=C/c1[nH]c(C)c(CCC(=O)NCCN(CC)CC)c1C)C(=O)N2)c1cccc(Cl)c1 (stereo not shown) [II.135, (3Z)-3-{4-[2-(2-diethylamino-ethylcarbamoyl)-ethyl]-3,5-dimethyl-1H-pyrrol-2-ylmethyiene}-2-oxo-2,3-dihydro-1H-indole-5-carboxylic acid [1-(3-chloro-phenyl)-propyl]-amide] | 1.35 µM | 1.55 µM | > 10 µM
0.1 to 1 µM | 0.72 µM | Cc1[nH]c(/C=C2\C(=O)Nc3ccc(C(=O)N[C@H](C)c4ccccc4)cc32)c(C)c1C(=O)N1CCCCC1 [II.14, (3Z)-3-{[3,5-dimethyl-4-(piperidin-1-ylcarbonyl)-1H-pyrrol-2-yl]methylene}-2-oxo-N-[(1R)-1-phenylethyl]indoline-5-carboxamide] | 0.75 µM | 1.19 µM | 1.42 µM
2 to 10 µM | 1.61 µM | COc1ccc([C@@H](C)NC(=O)c2ccc3c(c2)/C(=C/c2[nH]c(C)c(C(=O)N4CCN(C)CC4)c2C)C(=O)N3)cc1 [II.21, (3Z)-3-({3,5-dimethyl-4-[(4-methylpiperazin-1-yl)carbonyl]-1H-pyrrol-2-yl}methylene)-N-[(1R)-1-(4-methoxyphenyl)ethyl]-2-oxoindoline-5-carboxamide] | 1.31 µM | 4.07 µM | 9.83 µM
0.1 to 1 µM | 1.59 µM | CCC(NC(=O)c1ccc2c(c1)/C(=C/c1[nH]c(C)c(C(=O)NCCN3CCCC3)c1C)C(=O)N2)c1ccc(Cl)cc1 (stereo not shown) [II.13, (3Z)-N-[1-(4-chlorophenyl)propyl]-3-({3,5-dimethyl-4-[(2-pyrrolidin-1-ylethyl)carbamoyl]-1H-pyrrol-2-yl}methylene)-2-oxoindoline-5-carboxamide] | > 10 µM | 1.63 µM | 4.61 µM
– | 2.29 µM | CCN(CC)CCNC(=O)c1c(C)[nH]c(/C=C2\C(=O)Nc3ccc(C(=O)N[C@@H](C)c4ccccc4)cc32)c1C [II.60, (3Z)-3-[(4-{[2-(diethylamino)ethyl]carbamoyl}-3,5-dimethyl-1H-pyrrol-2-yl)methylene]-2-oxo-N-[(1S)-1-phenylethyl]indoline-5-carboxamide] | 2 µM | 2.21 µM | 4.06 µM
< 0.1 µM | 0.33 µM | CC[C@@H](NC(=O)c1ccc2c(c1)/C(=C/c1[nH]c(C)c(C(=O)NCCN(CC)CC)c1C)C(=O)N2)c1ccccc1 [II.61, (3Z)-3-[(4-{[2-(diethylamino)ethyl]carbamoyl}-3,5-dimethyl-1H-pyrrol-2-yl)methylene]-2-oxo-N-[(1R)-1-phenylpropyl]indoline-5-carboxamide] | 0.6 µM | 0.44 µM | 1.49 µM
1 to 2 µM | > 10 µM | Cc1[nH]c(/C=C2\C(=O)Nc3ccc(C(=O)O)cc32)c(C)c1C(=O)O [II.139, (3Z)-3-(4-carboxy-3,5-dimethyl-1H-pyrrol-2-ylmethylene)-2-oxo-2,3-dihydro-1H-indole-5-carboxylic acid] | 1.34 µM | > 10 µM | > 10 µM
< 0.1 µM | 5.73 µM | C[C@@H](NC(=O)c1ccc2c(c1)/C(=C/Nc1ccc(CN3CCCCC3)cc1)C(=O)N2)c1ccccc1 [II.78, (3Z)-2-oxo-N-[(1R)-1-phenylethyl]-3-({[4-(piperidin-1-ylmethyl)phenyl]amino}methylene)indoline-5-carboxamide] | > 10 µM | > 10 µM | > 10 µM
0.1 to 1 µM | > 10 µM | CCOC(=O)[C@H](C)NC(=O)c1c(C)[nH]c(/C=C2\C(=O)Nc3ccc(C(=O)O)cc32)c1C [II.136] | 2.69 µM | > 10 µM | > 10 µM
– | 0.37 µM | CCN(CC)CCNC(=O)c1c(C)[nH]c(/C=C2\C(=O)Nc3ccc(C(=O)N[C@H](C)c4ccccc4)cc32)c1C [II.59, (3Z)-3-[(4-{[2-(diethylamino)ethyl]carbamoyl}-3,5-dimethyl-1H-pyrrol-2-yl)methylene]-2-oxo-N-[(1R)-1-phenylethyl]indoline-5-carboxamide] | 0.63 µM | 0.71 µM | 1.11 µM
